# Key:
# [1] = target: Lck (Homo sapiens, UniProt P06239); test: Kinase profiling Lck; assay type: biochemical
# Source text: (§1) Any value less that 25 is considered to be highly significant inhibition.
# [2] = target: EF2K (Homo sapiens, UniProt O00418); test: Kinase profiling EF2K; assay type: biochemical
# Source text: as §1
# [3] = target: HER4 (Homo sapiens, UniProt Q15303); test: Kinase profiling HER4; assay type: biochemical
# Source text: as §1
# [4] = target: MSK1 (Homo sapiens, UniProt O75582); test: Kinase profiling MSK1; assay type: biochemical
# Source text: as §1
# [5] = target: T1, SGK1 (Homo sapiens, UniProt O00141); test: Kinase profiling SGK1; assay type: biochemical
# T1 sequence (O00141 1-431): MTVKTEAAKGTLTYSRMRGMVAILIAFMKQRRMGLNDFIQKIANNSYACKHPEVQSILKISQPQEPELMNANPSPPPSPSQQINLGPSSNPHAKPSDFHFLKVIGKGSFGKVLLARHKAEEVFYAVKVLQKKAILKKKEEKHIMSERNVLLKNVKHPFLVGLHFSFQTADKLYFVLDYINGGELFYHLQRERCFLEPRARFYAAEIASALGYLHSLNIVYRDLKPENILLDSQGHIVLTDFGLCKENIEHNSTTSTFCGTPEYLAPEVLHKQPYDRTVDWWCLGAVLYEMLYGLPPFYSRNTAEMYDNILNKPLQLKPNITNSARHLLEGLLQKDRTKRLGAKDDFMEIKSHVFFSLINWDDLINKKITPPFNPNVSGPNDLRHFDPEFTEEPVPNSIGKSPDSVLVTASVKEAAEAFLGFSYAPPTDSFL
# Source text: as §1
# [6] = target: T2, TBK1 (Homo sapiens, UniProt Q9UHD2); test: Kinase profiling TBK1; assay type: biochemical
# T2 sequence (Q9UHD2 1-729): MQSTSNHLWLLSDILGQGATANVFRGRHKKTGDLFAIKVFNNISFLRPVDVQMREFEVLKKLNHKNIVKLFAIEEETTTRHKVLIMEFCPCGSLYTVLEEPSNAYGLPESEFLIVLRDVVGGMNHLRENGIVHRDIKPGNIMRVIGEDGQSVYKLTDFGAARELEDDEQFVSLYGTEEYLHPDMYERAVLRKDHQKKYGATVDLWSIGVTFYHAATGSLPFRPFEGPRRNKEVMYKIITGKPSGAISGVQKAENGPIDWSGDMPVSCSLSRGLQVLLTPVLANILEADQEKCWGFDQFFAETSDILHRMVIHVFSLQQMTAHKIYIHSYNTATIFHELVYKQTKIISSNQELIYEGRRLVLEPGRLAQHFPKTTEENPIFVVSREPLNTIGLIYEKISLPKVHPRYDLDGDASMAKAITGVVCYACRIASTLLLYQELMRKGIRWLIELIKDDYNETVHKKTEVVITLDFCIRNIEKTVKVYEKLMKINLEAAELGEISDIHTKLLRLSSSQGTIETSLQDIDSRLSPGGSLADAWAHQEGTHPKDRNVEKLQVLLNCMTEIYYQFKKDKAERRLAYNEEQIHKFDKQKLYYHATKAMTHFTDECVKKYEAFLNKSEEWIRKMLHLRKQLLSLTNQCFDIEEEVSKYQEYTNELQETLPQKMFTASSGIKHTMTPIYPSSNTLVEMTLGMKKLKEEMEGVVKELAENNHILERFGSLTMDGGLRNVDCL
# Source text: as §1
# [7] = test system: AMPK (hum); test: Kinase profiling AMPK (hum); assay type: biochemical, human
# Source text: as §1
# [8] = target: T3, PDK1 (Homo sapiens, UniProt O15530); test: Kinase profiling PDK1; assay type: biochemical
# T3 sequence (O15530 1-556): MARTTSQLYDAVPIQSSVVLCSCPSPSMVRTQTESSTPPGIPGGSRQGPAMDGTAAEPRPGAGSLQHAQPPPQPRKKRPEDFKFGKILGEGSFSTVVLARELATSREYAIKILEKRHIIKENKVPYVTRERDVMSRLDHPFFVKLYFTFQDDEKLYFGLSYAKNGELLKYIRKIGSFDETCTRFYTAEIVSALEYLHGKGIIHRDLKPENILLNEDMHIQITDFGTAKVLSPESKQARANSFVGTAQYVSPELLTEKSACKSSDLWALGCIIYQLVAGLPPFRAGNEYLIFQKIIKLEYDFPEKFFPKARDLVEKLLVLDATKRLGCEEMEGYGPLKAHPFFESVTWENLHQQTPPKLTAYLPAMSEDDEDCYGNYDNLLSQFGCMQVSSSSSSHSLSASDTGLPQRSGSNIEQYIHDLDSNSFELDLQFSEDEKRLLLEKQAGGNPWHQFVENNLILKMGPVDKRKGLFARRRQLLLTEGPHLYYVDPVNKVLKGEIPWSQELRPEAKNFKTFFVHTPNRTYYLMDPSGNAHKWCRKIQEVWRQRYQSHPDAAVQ
# Source text: as §1
# [9] = target: SYK (Homo sapiens, UniProt P43405); test: Kinase profiling SYK; assay type: biochemical
# Source text: as §1
# [10] = target: MKK1 (Homo sapiens, UniProt Q02750); test: Kinase profiling MKK1; assay type: biochemical
# Source text: as §1
# [11] = target: SRPK1 (Homo sapiens, UniProt Q96SB4); test: Kinase profiling SRPK1; assay type: biochemical
# Source text: as §1
# [12] = target: Src (Homo sapiens, UniProt P12931); test: Kinase profiling Src; assay type: biochemical
# Source text: as §1
# [13] = 100 micromolar inhibitor concentration, 100 is no change
# [14] = 100 micromolar inhibitor, 100 = no change
# Src, sequence (P12931 whole entry, species assumed): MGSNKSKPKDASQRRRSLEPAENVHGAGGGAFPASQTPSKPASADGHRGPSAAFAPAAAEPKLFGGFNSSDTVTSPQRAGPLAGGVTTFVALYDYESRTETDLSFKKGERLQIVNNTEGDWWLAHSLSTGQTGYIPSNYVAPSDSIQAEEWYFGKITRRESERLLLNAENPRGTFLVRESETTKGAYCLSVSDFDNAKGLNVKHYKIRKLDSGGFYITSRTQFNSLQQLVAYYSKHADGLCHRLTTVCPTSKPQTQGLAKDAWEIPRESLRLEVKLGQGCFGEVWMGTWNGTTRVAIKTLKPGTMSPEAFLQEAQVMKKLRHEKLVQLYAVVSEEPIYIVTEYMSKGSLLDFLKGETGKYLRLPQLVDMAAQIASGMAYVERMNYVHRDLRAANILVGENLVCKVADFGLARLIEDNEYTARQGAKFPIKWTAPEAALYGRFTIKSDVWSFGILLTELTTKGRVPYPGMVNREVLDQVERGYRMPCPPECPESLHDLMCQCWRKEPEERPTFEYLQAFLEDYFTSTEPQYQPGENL
# HER4, sequence (Q15303 26-1308, species assumed): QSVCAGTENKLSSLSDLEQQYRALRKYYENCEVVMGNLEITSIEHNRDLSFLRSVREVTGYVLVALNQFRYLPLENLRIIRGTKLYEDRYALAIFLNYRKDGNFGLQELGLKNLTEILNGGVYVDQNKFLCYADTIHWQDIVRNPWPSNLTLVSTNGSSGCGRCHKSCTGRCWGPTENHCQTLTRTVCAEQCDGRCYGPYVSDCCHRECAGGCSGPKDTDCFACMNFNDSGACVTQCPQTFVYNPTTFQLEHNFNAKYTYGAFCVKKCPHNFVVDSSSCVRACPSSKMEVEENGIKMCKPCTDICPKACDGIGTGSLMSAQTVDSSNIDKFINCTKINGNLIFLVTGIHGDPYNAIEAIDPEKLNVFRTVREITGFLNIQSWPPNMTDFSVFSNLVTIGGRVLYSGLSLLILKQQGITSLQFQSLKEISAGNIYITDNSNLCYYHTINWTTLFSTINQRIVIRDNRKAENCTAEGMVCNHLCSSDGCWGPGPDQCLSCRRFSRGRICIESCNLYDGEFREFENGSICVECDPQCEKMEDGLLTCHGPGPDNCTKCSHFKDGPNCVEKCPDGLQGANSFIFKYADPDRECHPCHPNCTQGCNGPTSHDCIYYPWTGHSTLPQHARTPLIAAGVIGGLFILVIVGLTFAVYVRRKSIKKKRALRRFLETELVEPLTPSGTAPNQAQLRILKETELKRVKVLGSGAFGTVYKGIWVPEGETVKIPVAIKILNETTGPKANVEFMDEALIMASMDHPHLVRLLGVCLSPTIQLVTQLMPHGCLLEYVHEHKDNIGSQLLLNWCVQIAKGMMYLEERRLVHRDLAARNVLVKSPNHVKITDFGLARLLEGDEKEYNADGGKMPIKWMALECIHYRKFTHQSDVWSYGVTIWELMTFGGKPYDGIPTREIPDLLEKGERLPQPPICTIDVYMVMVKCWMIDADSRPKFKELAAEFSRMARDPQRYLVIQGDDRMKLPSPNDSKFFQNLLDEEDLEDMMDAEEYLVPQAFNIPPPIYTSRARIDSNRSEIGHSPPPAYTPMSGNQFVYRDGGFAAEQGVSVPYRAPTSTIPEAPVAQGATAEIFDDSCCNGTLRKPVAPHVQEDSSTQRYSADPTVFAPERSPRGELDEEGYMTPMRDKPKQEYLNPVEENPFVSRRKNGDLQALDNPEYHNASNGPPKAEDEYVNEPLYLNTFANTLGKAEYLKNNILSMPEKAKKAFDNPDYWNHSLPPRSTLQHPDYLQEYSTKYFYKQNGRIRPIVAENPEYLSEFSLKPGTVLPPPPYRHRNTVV
# Lck, sequence (P06239 whole entry, species assumed): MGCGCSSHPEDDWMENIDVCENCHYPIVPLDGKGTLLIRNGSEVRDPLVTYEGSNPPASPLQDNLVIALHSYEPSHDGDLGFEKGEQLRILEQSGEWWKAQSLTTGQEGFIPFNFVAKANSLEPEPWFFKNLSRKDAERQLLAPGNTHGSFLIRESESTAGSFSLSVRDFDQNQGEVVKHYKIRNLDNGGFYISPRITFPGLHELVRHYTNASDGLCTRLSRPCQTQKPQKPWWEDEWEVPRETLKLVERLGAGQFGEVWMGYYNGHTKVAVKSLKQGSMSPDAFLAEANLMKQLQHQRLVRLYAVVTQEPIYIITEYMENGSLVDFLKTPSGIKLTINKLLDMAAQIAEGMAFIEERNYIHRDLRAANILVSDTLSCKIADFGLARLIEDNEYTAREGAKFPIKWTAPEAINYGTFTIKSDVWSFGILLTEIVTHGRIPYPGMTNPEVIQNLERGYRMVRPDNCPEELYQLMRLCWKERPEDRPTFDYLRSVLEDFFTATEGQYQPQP
# MKK1, sequence (Q02750 whole entry, species assumed): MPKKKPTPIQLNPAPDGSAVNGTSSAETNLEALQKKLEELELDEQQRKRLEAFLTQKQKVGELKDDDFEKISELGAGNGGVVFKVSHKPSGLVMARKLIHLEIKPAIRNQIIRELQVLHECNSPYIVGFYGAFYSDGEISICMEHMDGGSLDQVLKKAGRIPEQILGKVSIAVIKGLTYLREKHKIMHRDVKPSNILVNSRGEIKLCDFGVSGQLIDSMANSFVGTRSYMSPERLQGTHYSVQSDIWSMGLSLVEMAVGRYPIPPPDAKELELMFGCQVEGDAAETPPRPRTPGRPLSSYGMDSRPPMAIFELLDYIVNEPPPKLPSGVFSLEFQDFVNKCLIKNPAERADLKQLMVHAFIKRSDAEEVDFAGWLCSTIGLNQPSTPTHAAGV
# SRPK1, sequence (Q96SB4 whole entry, species assumed): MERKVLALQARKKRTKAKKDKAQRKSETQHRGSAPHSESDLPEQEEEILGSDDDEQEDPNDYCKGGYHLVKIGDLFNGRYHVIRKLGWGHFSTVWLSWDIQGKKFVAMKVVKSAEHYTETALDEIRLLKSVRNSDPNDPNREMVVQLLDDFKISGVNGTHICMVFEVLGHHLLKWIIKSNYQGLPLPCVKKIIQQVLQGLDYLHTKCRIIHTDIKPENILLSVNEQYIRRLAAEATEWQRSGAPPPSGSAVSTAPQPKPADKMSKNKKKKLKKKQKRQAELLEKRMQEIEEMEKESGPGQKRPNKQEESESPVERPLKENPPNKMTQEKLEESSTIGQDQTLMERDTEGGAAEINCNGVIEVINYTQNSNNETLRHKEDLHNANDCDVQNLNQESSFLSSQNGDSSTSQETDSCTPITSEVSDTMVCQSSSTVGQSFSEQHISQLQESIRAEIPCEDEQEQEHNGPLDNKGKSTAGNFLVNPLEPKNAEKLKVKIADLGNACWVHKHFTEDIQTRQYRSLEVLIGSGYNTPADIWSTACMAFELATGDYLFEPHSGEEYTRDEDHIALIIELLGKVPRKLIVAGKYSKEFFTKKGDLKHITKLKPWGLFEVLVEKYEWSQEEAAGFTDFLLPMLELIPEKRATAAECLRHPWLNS
# MSK1, sequence (O75582 whole entry, species assumed): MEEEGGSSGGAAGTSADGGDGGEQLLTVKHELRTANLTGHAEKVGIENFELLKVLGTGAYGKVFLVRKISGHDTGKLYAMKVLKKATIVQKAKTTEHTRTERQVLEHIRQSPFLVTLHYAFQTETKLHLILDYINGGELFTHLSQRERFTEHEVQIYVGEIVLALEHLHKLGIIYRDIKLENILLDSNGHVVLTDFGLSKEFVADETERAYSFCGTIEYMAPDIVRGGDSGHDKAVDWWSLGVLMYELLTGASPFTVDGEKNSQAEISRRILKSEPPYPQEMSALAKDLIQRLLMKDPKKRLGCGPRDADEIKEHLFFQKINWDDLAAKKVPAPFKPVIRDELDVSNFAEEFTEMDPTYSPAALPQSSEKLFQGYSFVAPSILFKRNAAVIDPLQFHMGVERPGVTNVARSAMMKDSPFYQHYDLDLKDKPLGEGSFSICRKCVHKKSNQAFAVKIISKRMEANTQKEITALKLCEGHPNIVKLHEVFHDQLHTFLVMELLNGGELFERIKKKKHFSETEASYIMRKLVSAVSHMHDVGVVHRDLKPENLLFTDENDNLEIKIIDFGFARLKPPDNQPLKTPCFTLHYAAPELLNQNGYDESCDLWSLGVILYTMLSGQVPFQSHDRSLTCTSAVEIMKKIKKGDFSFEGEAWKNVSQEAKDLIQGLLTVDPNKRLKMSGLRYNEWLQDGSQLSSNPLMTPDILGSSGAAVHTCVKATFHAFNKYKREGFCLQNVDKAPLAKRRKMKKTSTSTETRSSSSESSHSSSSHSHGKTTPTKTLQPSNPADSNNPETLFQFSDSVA
SMILES,"residual kinase activity, Lck [1, 13]","residual kinase activity, EF2K [2, 13]","residual kinase activity, HER4 [3, 13]","residual kinase activity, MSK1 [4, 13]","residual kinase activity, SGK1 [5, 13]","residual kinase activity, TBK1 [6, 13]","residual kinase activity, AMPK (hum) [7, 13]","residual kinase activity, PDK1 [8, 13]","residual kinase activity, SYK [9, 13]","residual kinase activity, MKK1 [10, 13]","residual kinase activity, SRPK1 [11, 13]","residual kinase activity, Src [12, 13]",other results
COC(=O)c1cccc(C(=O)Nc2nc3ccc(F)cc3s2)c1 [Compound 03-110],93,94,107,77,87,96,69,123,79,70,55,178,
CC(=O)Nc1nc2ccc(F)cc2s1 [Compound 03-94],92,96,101,88,67,91,59,87,96,76,75,76,
COc1cccc(NC(=O)Nc2nc3cc(O)ccc3s2)c1 [Compound 13-62],,,,,,,,,,,,,"residual kinase activity, Lck [1, 14]: 11; residual kinase activity, EF2K [2, 14]: 85; residual kinase activity, HER4 [3, 14]: 13; residual kinase activity, MSK1 [4, 14]: 41; residual kinase activity, SGK1 [5, 14]: 21; residual kinase activity, TBK1 [6, 14]: 48; residual kinase activity, AMPK (hum) [7, 14]: 23; residual kinase activity, PDK1 [8, 14]: 77; residual kinase activity, SYK [9, 14]: 59; residual kinase activity, MKK1 [10, 14]: 15; residual kinase activity, SRPK1 [11, 14]: 3; residual kinase activity, Src [12, 14]: 7"
COc1ccc2sc(NC(=O)c3cccc(C(N)=O)c3)nc2c1 [Compound 03-113],111,127,103,65,88,98,96,101,108,119,82,79,
"COC(=O)c1cccc(C(=O)Nc2nc3ccc(C(F)(F)F)cc3s2)c1 [Compound 03-105, Methyl 3-((6-(trifluoromethyl)benzo[d]thiazol-2-yl)carbamoyl)benzoate]",,,,,,,71,,,,,,"remaining activity at 100 µM ([1]; read-out: residual kinase activity, Lck): 99%; remaining activity at 100 µM ([2]; read-out: residual kinase activity, EF2K): 108%; remaining activity at 100 µM ([3]; read-out: residual kinase activity, HER4): 122%; remaining activity at 100 µM ([4]; read-out: residual kinase activity, MSK1): 84%; remaining activity at 100 µM ([5]; read-out: residual kinase activity, SGK1): 86%; remaining activity at 100 µM ([6]; read-out: residual kinase activity, TBK1): 101%; remaining activity at 100 µM ([8]; read-out: residual kinase activity, PDK1): 87%; remaining activity at 100 µM ([9]; read-out: residual kinase activity, SYK): 102%; remaining activity at 100 µM ([10]; read-out: residual kinase activity, MKK1): 86%; remaining activity at 100 µM ([11]; read-out: residual kinase activity, SRPK1): 54%; remaining activity at 100 µM ([12]; read-out: residual kinase activity, Src): 165%"
O=C(Nc1nc2cc(O)ccc2s1)c1ccccc1 [Compound 03-102],98,92,45,72,86,66,49,74,80,52,10,30,
COc1ccc2sc(NC(=O)c3ccccc3)nc2c1 [Compound 03-95],93,115,81,67,60,100,75,89,83,92,42,77,

# From patent US10231954B2, “Neurodegenerative therapies” (LYTIX BIOPHARMA AS, priority 2014, dated 2019)
